In ChEMBL document CHEMBL1201862, “PubChem BioAssay data set” (2004):
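Grown in 96-well plates, cells were treated for 48 hours with each compound at five concentrations. Insufficient inhibition: endpoint recorded as highest concentration tested. GI50: concentration for 50% inhibition of growth.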 The source made the active and inactive calls. Cut-off read from the data, not from the text of the source: active = GI50 up to about 1.1 µM and inactive = higher.

Tests used:
Assay in all cases: inhibition of tumour cell growth, NCI panel, 48 h
LXFL 529 = system: LXFL 529
SNB-78 = system: SNB-78
DLD-1 = system: DLD-1
KM-20L2 = system: KM-20L2
DMS-273 = system: DMS-273
RXF 631 = system: RXF 631
HOP-18 = system: HOP-18
DMS-114 = system: DMS-114
XF498 = system: XF498

| SMILES | GI50 (LXFL 529) | GI50 (SNB-78) | GI50 (DLD-1) | GI50 (KM-20L2) | GI50 (DMS-273) | GI50 (RXF 631) | GI50 (HOP-18) | GI50 (DMS-114) | GI50 (XF498) |
| --- | --- | --- | --- | --- | --- | --- | --- | --- | --- |
| N#C/C(=C\c1ccc2ccccc2c1)c1ccccc1 | 29.4 µM (inactive) | 28.1 µM (inactive) | 25.7 µM (inactive) | 15.6 µM (inactive) | 14 µM (inactive) | 30.5 µM (inactive) | 22.1 µM (inactive) |  |  |
| CCCCCCCCCCCCn1[nH]c(C)c(C(=S)SCCCCCCCC)c1=O | 53.2 µM (inactive) | > 100 µM (inactive) | 19.6 µM (inactive) | 36.8 µM (inactive) | 99.5 µM (inactive) | 75.7 µM (inactive) | 61.5 µM (inactive) | 26.7 µM (inactive) | > 100 µM (inactive) |
| COc1ccc(/C=C/C(=O)c2sc(N)nc2C)cc1 |  | > 100 µM (inactive) | > 100 µM (inactive) | > 100 µM (inactive) | > 100 µM (inactive) |  | > 100 µM (inactive) | > 100 µM (inactive) |  |
| COc1ccc([C@H]2CC(=O)NCCCCN2)cc1 | > 100 µM (inactive) | > 100 µM (inactive) | > 100 µM (inactive) | > 100 µM (inactive) | > 100 µM (inactive) |  | > 100 µM (inactive) | > 100 µM (inactive) | > 100 µM (inactive) |
| O=C1OC(=O)c2c1c(-c1ccccc1)cn2-c1ccc(Cl)cc1 | 5.94 µM (inactive) | > 100 µM (inactive) | > 100 µM (inactive) | 22.1 µM (inactive) | 8.77 µM (inactive) | > 100 µM (inactive) | > 100 µM (inactive) | 77.3 µM (inactive) | > 100 µM (inactive) |
| C=COC(=O)N[C@H]1CCc2cc(OC)c(OC)c(OC)c2-c2ccc(SC)c(=O)cc21 | < 0.01 µM (active) | < 0.01 µM (active) |  | < 0.01 µM (active) | < 0.01 µM (active) |  | > 100 µM (inactive) | < 0.01 µM (active) | < 0.01 µM (active) |
| CC(C)CC(NC(=O)OC(C)(C)C)C(=O)Nc1ccc(Nc2nc(F)nc(-c3c4ccccc4cn3C)n2)cc1 (centres undefined) | 77.3 µM (inactive) | 14.7 µM (inactive) | > 37.2 µM (inactive) | 37.6 µM (inactive) | 42.6 µM (inactive) |  | > 100 µM (inactive) | 21.8 µM (inactive) | > 85.1 µM (inactive) |
| COC(=O)C(C(=O)C(=O)Nc1nc2ccc([N+](=O)[O-])cc2s1)c1nc2ccc(Cl)cc2nc1O (centres undefined) | > 100 µM (inactive) | > 100 µM (inactive) | > 100 µM (inactive) | > 100 µM (inactive) | > 100 µM (inactive) | > 100 µM (inactive) | > 100 µM (inactive) | > 100 µM (inactive) |  |
| ClC(/N=N/c1ccccc1)=N/Nc1ccccc1 | 28.5 µM (inactive) | > 100 µM (inactive) |  | 51.1 µM (inactive) | 26.6 µM (inactive) | > 100 µM (inactive) | 20.8 µM (inactive) |  | 40.4 µM (inactive) |
| COc1nc(NC2OC(COC(C)=O)C(OC(C)=O)C(OC(C)=O)C2OC(C)=O)c(-c2csc(N)n2)c(=O)n1C (centres undefined) | 70 µM (inactive) | 62.2 µM (inactive) | 52.7 µM (inactive) | > 100 µM (inactive) |  |  | 39.4 µM (inactive) | 53.5 µM (inactive) |  |
| N/N=C(\Cc1ccccc1)NN=C(N)N | > 100 µM (inactive) | > 100 µM (inactive) | > 100 µM (inactive) |  |  | > 100 µM (inactive) | > 100 µM (inactive) |  | > 100 µM (inactive) |
| O=C(/C=C/c1ccc(Cl)c(Cl)c1)c1cccc2ccccc12 | 2.28 µM (inactive) | 11.4 µM (inactive) | 2.49 µM (inactive) | 5.22 µM (inactive) | 4.05 µM (inactive) | 17 µM (inactive) | 17.3 µM (inactive) | 2.3 µM (inactive) |  |
| O=C1CCC(=O)c2c1c(O)c1ccncc1c2O | 16.6 µM (inactive) | 23.7 µM (inactive) | 13.7 µM (inactive) | 20.9 µM (inactive) | 17.3 µM (inactive) | 25.4 µM (inactive) | 26.9 µM (inactive) | 12 µM (inactive) | 18.4 µM (inactive) |
| Cc1ccc(/N=N/c2ccc(N(CCC#N)CCC#N)cc2C)c(Br)c1 | 20 µM (inactive) | 24.7 µM (inactive) | 13.7 µM (inactive) |  | 10 µM (inactive) | 4.35 µM (inactive) | 15.6 µM (inactive) | 12.8 µM (inactive) | 9.08 µM (inactive) |
| CC(=O)OCC1=CC2CCC3C(C)(CCC[C@]3(C)COC(C)=O)C23CC[C@H]1C3 (some centres undefined) | 29.2 µM (inactive) |  | 51.6 µM (inactive) | 41 µM (inactive) | 29.6 µM (inactive) | > 100 µM (inactive) | > 100 µM (inactive) | 12.9 µM (inactive) | 33.8 µM (inactive) |
| O=C(c1nc2ccc([N+](=O)[O-])cc2nc1O)C(O)c1ccc2c(c1)OCO2 (centres undefined) | 71.8 µM (inactive) |  | > 100 µM (inactive) | 47 µM (inactive) | > 100 µM (inactive) |  | > 100 µM (inactive) | 29.5 µM (inactive) |  |
| O=C1C=CC(=O)c2c1cc1ccccc1c2O | 1.9 µM (inactive) | 3.78 µM (inactive) | 1.66 µM (inactive) | 19 µM (inactive) | 12.7 µM (inactive) |  | 18.2 µM (inactive) |  | 3.01 µM (inactive) |
| NC(=O)N/N=C(\CC1OC(=O)c2ccccc21)c1ccco1 (centres undefined) | > 100 µM (inactive) |  | > 100 µM (inactive) | > 100 µM (inactive) | > 100 µM (inactive) | > 100 µM (inactive) | > 100 µM (inactive) | > 100 µM (inactive) |  |
| O=C1c2ccccc2C(=O)c2nc3ccc(Cl)cc3cc21 | > 100 µM (inactive) | > 100 µM (inactive) | > 100 µM (inactive) | > 100 µM (inactive) | > 100 µM (inactive) | > 100 µM (inactive) |  | > 100 µM (inactive) | > 100 µM (inactive) |
| CCN(CC)CCn1c2ccccc2c(=O)c2c(OC)ccc(OC)c21 | 68.5 µM (inactive) | 40.6 µM (inactive) |  | 45.2 µM (inactive) | 37.3 µM (inactive) |  |  |  | 87.5 µM (inactive) |
| O=C(N/C(=C\c1ccc(Oc2ccc(Cl)c(Cl)c2)cc1)c1nc2ccccc2[nH]1)c1ccccc1 | 12.5 µM (inactive) | 20.4 µM (inactive) | 17.7 µM (inactive) | 17.7 µM (inactive) | 21.2 µM (inactive) |  |  |  | 16.8 µM (inactive) |
| COc1cc2c(cc1OC)C(=O)N1CCCC1C(=O)S2 (centres undefined) | > 100 µM (inactive) | > 100 µM (inactive) | > 100 µM (inactive) | > 100 µM (inactive) | > 100 µM (inactive) |  | 25.4 µM (inactive) | > 100 µM (inactive) | 92.7 µM (inactive) |
| CC(C)[C@H]1CO[C@@H]2O[C@H](C)CC(=O)N21 | > 100 µM (inactive) |  | > 100 µM (inactive) | > 100 µM (inactive) |  |  | > 100 µM (inactive) | > 100 µM (inactive) |  |
| COc1nc(C(Cl)(Cl)Cl)c(Cl)c(OC)c1Cl [PENCLOMEDINE] |  | 37.1 µM (inactive) | 42.6 µM (inactive) | 47 µM (inactive) | 40.4 µM (inactive) | 17.6 µM (inactive) | 36.1 µM (inactive) | 25.4 µM (inactive) | 25.3 µM (inactive) |
| Nc1nc(SCc2ccccc2[N+](=O)[O-])c2[nH]cnc2n1 | > 100 µM (inactive) | > 100 µM (inactive) | > 100 µM (inactive) | > 100 µM (inactive) | > 100 µM (inactive) |  |  |  |  |
| CCC(CC)n1c(C)nc2c1C(=O)c1ccccc1C2=O | 19.5 µM (inactive) | 49.7 µM (inactive) | 24.3 µM (inactive) | 39.4 µM (inactive) | 23.1 µM (inactive) |  |  |  |  |
